Assay results from article PMC1940322, “The Effect of PPARα, PPARδ, PPARγ, and PPARpan Agonists on Body Weight, Body Mass, and Serum Lipid Profiles in Diet-Induced Obese AKR/J Mice” (PPAR Research, 2007).

What was measured:
[1] = test system: diet-induced obese (DIO) AKR/J mouse; test: Serum clinical chemistry of terminal blood samples, DIO AKR/J mice; format: in vivo; conditions: for Cholesterol / Glucose / HDL-C / Insulin / NEFA / Triglyceride / bHBA: serum, end of treatment, 28 days; for effect on serum chemistry (in words): terminal serum after 28 days
Experimental: (§1) On the final day of each experiment, a terminal blood sample (800–1000 μL) was obtained via cardiac puncture under isoflurane anesthesia. Whole blood was placed in a Terumo Capiject blood collection tube (Terumo Medical Corp., Elkton, Md, USA), allowed to sit at room temperature for 20 minutes then centrifuged to obtain serum. Serum levels of glucose, triglycerides, glycerol, nonesterified fatty acids, total cholesterol, the high-density lipoprotein cholesterol, and β-hydroxybutyrate were determined in all mice using an Olympus AU640 clinical chemistry immuno-analyzer (Olympus America Inc., Melville, NY, USA). In addition, liver weights were obtained following the terminal blood sample on the final day of the study and samples were used to determine liver fatty acid oxidation activity.

[2] = test system: fatty acid oxidation in mouse liver; test: Ex vivo fatty acid oxidation in liver homogenates (14C-CO2 capture); conditions: liver extracts from animals treated for 28 days
Experimental: Fatty acid oxidation (FAO) was determined by ^14C-labeled CO2 capture from tissue homogenates using a method modified from Dohm et al.. Following treatment with either vehicle or a PPAR agonist, livers from fed mice were surgically removed and a section excised from the same lobe. The tissue was immediately weighed, minced with scissors and placed in tubes (Falcon #2063) on ice. Cold SET buffer (250 mM Sucrose, 1 mM EDTA, 10 mM Tris, pH 7.4) was added at a ratio of 10 mL SET:1 gram of tissue and the tissue homogenized on ice for 15 sec using a hand-held homogenizer (Polytron PT1200; Kinematica AG). The homogenates remained on ice until assayed.
The labeled reaction buffer was prepared by first drying ^14C-oleic acid (0.5 μCi/reaction; PerkinElmer #NEC-317) under nitrogen. The dried fraction is re-suspended in unlabeled oleic acid such that the final concentration of oleic acid in the reaction buffer was 0.2 mM. BSA was added slowly while mixing to a final concentration of 0.5% and the mixture was incubated at 37°C for 15 minutes. The labeled cocktail was then added to the reaction buffer to give a produce concentration of 100 mM sucrose, 10 mM Tris pH 7.4, 4 mM ATP, 0.05 mM Coenzyme A, 0.1 mM malic acid, 1 mM magnesium chloride, 80 mM potassium chloride, 5 mM potassium phosphate, 0.2 mM EDTA, and 2 mM L-carnitine, as described previously.
Oxidation reactions were performed in tubes (Falcon #352059) fitted with a stopper top (KONTES Glass Co., #882310-0000), center well (KONTES #882320-0000), and filter (Socorex #322.02) soaked with 175 μL of 1N NaOH. 100 μL of homogenate was dispensed into each tube and the reactions initiated by adding 400 μL of reaction buffer. The tubes were quickly capped and incubated with gentle shaking for 60 minutes in a 37°C water bath. After incubation, the filters were removed, from the tubes, placed in 7 mL of scintillant, and counted for 2 minutes (PerkinElmer Tri-Carb 3100TR). The oxidative activity of each compound was calculated as nmole CO2 captured/gram tissue/hour and reported as fold change relative to vehicle control.
as §1

[3] = test system: diet-induced obese (DIO) AKR/J mouse; test: Body weight, body composition (qMR) and liver weight in diet-induced obese AKR/J mice; format: in vivo; conditions: for BW day 28 / effect on FM (in words) / effect on LM (in words) / increase in liver weight / effect on BW (in words) / Fat mass day 28 / Lean mass day 28 / Liver weight: 28 days; for effect on FM (in words) / effect on LM (in words): doses as in methods; for increase in liver weight: PPARα agonist 1 mg/kg or PPARδ agonist 30 mg/kg alone; for BW day 0: baseline before treatment; for effect on BW (in words): oral, GW9578 1, GW0742 30, GW7845 3, RIM 10 and 30 mg/kg, PPARpan agonists; for Fat mass day 28 / Lean mass day 28: qMR; for Liver weight: terminal collection
Experimental: The effects of monotherapy with selective PPAR agonists, combination therapy with PPARα and PPARδ, and treatment with PPARpan agonists were evaluated in four experiments in diet-induced obese (DIO) AKR/J mouse. The AKR/J mouse is a polyoma-susceptible strain originally utilized to study accelerated tumor development. This strain becomes obese and hyperinsulemic when fed a high fat diet. Age-matched, male AKR/J mice were allowed ad libitum access to Research Diet D12331 (Research Diet, Brunswick, NJ) at the Jackson Laboratories (Bar Harbor, ME) beginning at 6 weeks of age. The diet has an energy density of 5.56 kcal/g (58% kcal from fat; 26% kcal from carbohydrates, and 16% kcal from protein). The animals were allowed to become obese, achieving BW >40 grams before shipping to GlaxoSmithKline laboratory animal facility at 13 weeks of age. The mice were housed 4 per cage in standard shoebox cages and were fed the high fat diet until they reached approximately 50 grams. Age-matched lean control animals obtained from Jackson Laboratories were fed a diet of normal chow (3.04 kcal/g energy density, 12% kcal from fat, LabDiet 5001, St. Louis, MO) and used for comparison.
At the beginning of each study, the animals were weighed and body composition obtained using an EchoMRI-100 quantitative magnetic resonance (qMR, EchoMRI, Houston, TX) whole body composition analyzer. […] 16 lean control mice on standard chow were used as reference. All mice were dosed orally with vehicle (0.5% methylcellulose and 0.1% Tween 80, 10 mL/kg) for six days prior to the beginning of dosing for acclimation to handling and treatment before drug treatment was initiated.
In each experiment, BW of each animal was measured and recorded three times weekly throughout the treatment period. Body mass was obtained weekly on days 0, 7, 13, 20, and 27 of treatment. The effects of selective PPARα, δ, and γ agonists on food consumption were also assessed. Food consumption is expressed as total energy consumed (kcal) over a 24-period and as cumulative consumption over the course of the experiment.
as §1
Experiment 1 was designed to study the effects of a selective PPARα agonist and PPARδ agonist as mono and combination therapy. 48 mice were sorted into 6 groups and blocked such that initial BW and body composition were not different between groups. […] Two additional groups of mice were dosed for the first 14 days with either a PPARα agonist or a PPARδ agonist alone. At day 15, the PPARδ agonist was added to the treatment regimen of animals dosed with PPARα, and the PPARα agonist was added to the dosing material of animals previously dosed with PPARδ alone. The sixth group was dosed with both the PPARα and PPARδ agonists for the entire 28-day period. BW and food consumption were assessed 3 times per week and body composition was measured weekly.
In Experiment 2, 32 mice were sorted into 4 groups (n = 8/group) and dosed with vehicle and a selective PPARγ agonist (GW7845, 3 mg/kg) for 28 days. Rimonabant (RIM, 10 or 30 mg/kg, q.d.), a CB1 receptor antagonist, was used as a positive control for weight loss. […]

SMILES: Cc1cc(SCc2sc(-c3ccc(C(F)(F)F)c(F)c3)nc2C)ccc1OCC(=O)O [GW0742]
- Cholesterol ([1]; 30 mg/kg oral): 171.9 ± 2.9 mg/dL
- Glucose ([1]; 30 mg/kg oral): 253.3 ± 8.9 mg/dL
- HDL-C ([1]; 30 mg/kg oral): 118.4 ± 1.6 mg/dL
- Insulin ([1]; 30 mg/kg oral): 2.2 ± 1.2 ng/mL
- NEFA ([1]; 30 mg/kg oral): 0.9 ± 0.02 mEq/L
- Triglyceride ([1]; 30 mg/kg oral): 174.9 ± 10.3 mg/dL
- bHBA ([1]; 30 mg/kg oral): 3.8 ± 0.3 mg/dL
- effect on serum chemistry (in words) [1]: significantly reduced circulating insulin (INS) levels
- effect on liver FAO (in words) [2]: significant increase in liver FAO
- increase in FAO ([2]; relative to vehicle control): 1.9 fold
- BW day 28 ([3]; 30 mg/kg oral): 50.2 ± 1.2 grams
- effect on FM (in words) [3]: slight decrease in FM
- effect on LM (in words) [3]: LM was unaffected
- increase in liver weight [3]: ~1 gram
- BW day 0 ([3]; group dosed 30 mg/kg oral): 51.6 ± 1.1 grams
- effect on BW (in words) [3]: neither compound induced a sustained decrease in BW
- Fat mass day 28 ([3]; 30 mg/kg oral): 18.4 ± 0.7 grams
- Lean mass day 28 ([3]; 30 mg/kg oral): 29.7 ± 0.7 grams
- Liver weight ([3]; 30 mg/kg oral): 3.2 ± 0.1 grams

SMILES: COC(=O)c1ccccc1N[C@@H](Cc1ccc(OCCc2nc(-c3ccccc3)oc2C)cc1)C(=O)O [GW7845]
- Cholesterol ([1]; 3 mg/kg oral): 106.1 ± 4.2 mg/dL
- Glucose ([1]; 3 mg/kg oral): 222.3 ± 9.4 mg/dL
- HDL-C ([1]; 3 mg/kg oral): 65.0 ± 0.9 mg/dL
- Insulin ([1]; 3 mg/kg oral): 2.1 ± 0.4 ng/mL
- NEFA ([1]; 3 mg/kg oral): 0.6 ± 0.03 mEq/L
- Triglyceride ([1]; 3 mg/kg oral): 112.3 ± 5.7 mg/dL
- bHBA ([1]; 3 mg/kg oral): 1.5 ± 0.1 mg/dL
- effect on serum chemistry (in words) [1]: significant reduction in circulating INS, TG, and NEFA levels
- effect on liver FAO (in words) [2]: no effect on FAO in mouse liver
- effect on liver FAO (in words) ([2]; listed as PPARγ agonist): not different from vehicle
- BW day 28 ([3]; 3 mg/kg oral): 54.6 ± 1.7 grams
- effect on FM (in words) [3]: significant increase in FM
- BW day 0 ([3]; group dosed 3 mg/kg oral): 50.9 ± 1.2 grams
- effect on BW (in words) [3]: steady and consistent increase in BW
- Fat mass day 28 ([3]; 3 mg/kg oral): 23.5 ± 1.3 grams
- Lean mass day 28 ([3]; 3 mg/kg oral): 28.7 ± 0.6 grams
- Liver weight ([3]; 3 mg/kg oral): 2.0 ± 0.1 grams

SMILES: CCCCCCCN(CCc1ccc(SC(C)(C)C(=O)O)cc1)C(=O)Nc1ccc(F)cc1F [GW9578]
- Cholesterol ([1]; 1 mg/kg oral): 117.1 ± 4.1 mg/dL
- Glucose ([1]; 1 mg/kg oral): 248.0 ± 16.6 mg/dL
- HDL-C ([1]; 1 mg/kg oral): 86.6 ± 2.7 mg/dL
- Insulin ([1]; 1 mg/kg oral): 3.1 ± 1.6 ng/mL
- NEFA ([1]; 1 mg/kg oral): 0.9 ± 0.04 mEq/L
- Triglyceride ([1]; 1 mg/kg oral): 168.3 ± 15.4 mg/dL
- bHBA ([1]; 1 mg/kg oral): 3.2 ± 1.1 mg/dL
- effect on serum chemistry (in words) [1]: significantly reduced circulating insulin (INS) levels
- effect on liver FAO (in words) [2]: not different from vehicle
- BW day 28 ([3]; 1 mg/kg oral): 51.3 ± 1.6 grams
- effect on FM (in words) [3]: slight decrease in FM
- effect on LM (in words) [3]: LM was unaffected
- increase in liver weight [3]: ~1 gram
- BW day 0 ([3]; group dosed 1 mg/kg oral): 52.1 ± 1.1 grams
- effect on BW (in words) [3]: neither compound induced a sustained decrease in BW
- Fat mass day 28 ([3]; 1 mg/kg oral): 18.4 ± 0.9 grams
- Lean mass day 28 ([3]; 1 mg/kg oral): 30.9 ± 0.8 grams
- Liver weight ([3]; 1 mg/kg oral): 2.6 ± 0.1 grams
